Reference: US20060253263A1, “Method to optimize drug selection, dosing and evaluation and to help predict therapeutic response and toxicity from immunosuppressant therapy” (priority 2005, published 2006)
Where two headings read alike, the source gives them in different places.

Assays:
[1] = tested on: advanced colorectal cancers; settings: 5-FU alone; cited from earlier work
[2] = target: T1, dihydropyrimidine dehydrogenase (DPD) (Homo sapiens, UniProt Q12882); settings: cited from earlier work
T1 construct: host or cells: endogenous enzyme of the body (in vivo drug catabolism)
T1 sequence (Q12882 4-1025): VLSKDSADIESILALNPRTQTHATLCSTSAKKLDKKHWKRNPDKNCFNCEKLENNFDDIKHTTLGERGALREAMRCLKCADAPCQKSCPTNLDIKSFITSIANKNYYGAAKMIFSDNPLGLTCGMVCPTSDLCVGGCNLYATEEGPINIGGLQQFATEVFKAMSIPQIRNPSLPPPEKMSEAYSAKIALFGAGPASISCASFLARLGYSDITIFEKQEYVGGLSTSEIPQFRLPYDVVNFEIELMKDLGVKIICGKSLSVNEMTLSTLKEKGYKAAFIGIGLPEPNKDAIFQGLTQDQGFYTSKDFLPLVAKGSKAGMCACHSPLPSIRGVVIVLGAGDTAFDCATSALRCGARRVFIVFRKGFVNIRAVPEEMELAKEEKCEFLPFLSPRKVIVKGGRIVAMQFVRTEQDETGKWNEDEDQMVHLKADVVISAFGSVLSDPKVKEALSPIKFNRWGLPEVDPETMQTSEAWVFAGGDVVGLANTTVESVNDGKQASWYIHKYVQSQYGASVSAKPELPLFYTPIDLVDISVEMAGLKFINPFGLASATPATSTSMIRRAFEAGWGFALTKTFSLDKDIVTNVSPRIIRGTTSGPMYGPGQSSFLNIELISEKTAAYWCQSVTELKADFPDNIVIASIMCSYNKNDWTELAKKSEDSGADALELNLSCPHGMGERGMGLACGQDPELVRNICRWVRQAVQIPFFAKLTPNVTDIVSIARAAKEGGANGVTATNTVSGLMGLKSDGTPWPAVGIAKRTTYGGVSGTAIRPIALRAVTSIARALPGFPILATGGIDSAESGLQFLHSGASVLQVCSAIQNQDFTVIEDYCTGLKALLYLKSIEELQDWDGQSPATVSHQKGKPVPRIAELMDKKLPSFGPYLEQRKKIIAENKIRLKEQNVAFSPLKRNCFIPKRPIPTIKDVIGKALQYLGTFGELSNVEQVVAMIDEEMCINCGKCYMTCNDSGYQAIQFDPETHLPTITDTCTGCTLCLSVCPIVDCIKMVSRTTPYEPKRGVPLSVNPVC

[3] = cited from earlier work
[4] = human, in vivo
[5] = tested on: patients with proliferative LN; settings: 59 patients, cited from earlier work; for patients who died during maintenance therapy: followed for as long as 30 months
[6] = tested on: patients with class IV LN; settings: cited from earlier work; for renal remission achieved: then AZA maintenance
[7] = tested on: patients with class IV LN; settings: cited from earlier work
patients with severe LN = settings: cited from earlier work; for combined end point, complete plus partial remission (number of patients): P=0.009; for complete remission (number of patients) / complete remission (percent of patients) / partial remission (number of patients): induction therapy of LN; for complete remission (number of patients) / complete remission (percent of patients): 140 patients randomized
[8] = tested on: rheumatoid arthritis patients; settings: five trials, 300 patients, cited from earlier work
[9] = tested on: rheumatoid arthritis patients; settings: cited from earlier work

Structure (SMILES): O=c1[nH]cc(F)c(=O)[nH]1 [5-FU, 5-Fluorouracil]
- partial remissions [1]: 10-30%
- fraction of a dose transformed by DPD to the inactive dihydrofluorouracil form ([2]; in vivo): more than 80%
- fraction of an injected dose rapidly inactivated by DPD ([2]; injected dose): More than 85%
- dose excreted unchanged in the urine ([3]; normal individuals): 10%
- dose excreted unchanged in the urine ([3]; people genetically deficient in DPD): 90%

Structure (SMILES): Cn1cnc([N+](=O)[O-])c1Sc1ncnc2nc[nH]c12 [AZA, azathioprine]
- 6-TG level at maintained therapeutic response [4]: 187 pmol
- therapeutic range of 6-TG [4]: 140 to 249 pmol
- patients who developed chronic renal failure during maintenance therapy [5]: one

Structure (SMILES): O=P1(N(CCCl)CCCl)NCCCO1 (stereo not shown) [CYC, Cyclophosphamide]
- renal remission achieved ([6]; high-dose group (six monthly pulses followed by two quarterly pulses IV)): 54%
- subsequent renal flares ([6]; high-dose group): 29%
- renal remission achieved ([6]; low-dose group (500 mg biweekly x six pulses IV)): 71%
- subsequent renal flares ([6]; low-dose group): 27%
- renal survival ([7]; black patients, at year 5): 71%
- renal survival rate ([7]; nonblack patients, through 5 years of follow-up): 95%
- combined end point, complete plus partial remission (number of patients) (patients with severe LN): 21 patients
- deaths (patients with severe LN; all in patients randomized to IV CYC): Three
- complete remission (number of patients) (patients with severe LN): four
- complete remission (percent of patients) (patients with severe LN): 6%
- partial remission (number of patients) (patients with severe LN): 17 patients
- patients who died during maintenance therapy [5]: four
- patients who developed chronic renal failure during maintenance therapy [5]: three

Structure (SMILES): COc1c(C)c2c(c(O)c1C/C=C(\C)CCC(=O)OCCN1CCOCC1)C(=O)OC2 [MMF, Mycophenolate mofetil]
- combined end point, complete plus partial remission (number of patients) (patients with severe LN): 37 patients
- complete remission (number of patients) (patients with severe LN): 16 patients
- complete remission (percent of patients) (patients with severe LN): 23%
- partial remission (number of patients) (patients with severe LN): Twenty-one
- patients who died during maintenance therapy [5]: one
- patients who developed chronic renal failure during maintenance therapy [5]: one

Structure (SMILES): CN(Cc1cnc2nc(N)nc(N)c2n1)c1ccc(C(=O)N[C@@H](CCC(=O)O)C(=O)O)cc1 [MTX, methotrexate]
- more likely than placebo to discontinue treatment due to adverse reactions [8]: three
- people who withdrew due to adverse effects ([8]; placebo group seven percent): twenty-two
- fraction of rheumatoid arthritis patients showing major improvement ([9]; human, in vivo): one-third
- patients with mild adverse effects ([9]; rheumatoid arthritis patients): up to 60%
